Measured values from patent publication US9770452B2, “Quinoxaline derivatives as GPR6 modulators” (Takeda Pharmaceutical Company Limited, priority 2012, dated 2017).
Counter-ions that a name gives are not always drawn.

The compounds below were run against T1, GPR6 receptor (Homo sapiens, UniProt P46095) (assay: Inhibition of cAMP Activity of GPR6 In Vitro Assay (CHO-K1 cells, HTRF cAMP)). Details: compounds of Compound Table 1; inhibition of constitutive cAMP activity of GPR6 expressed in CHO-K1 cells; approximate IC50; read-out: IC50.
T1 construct: expressed in transfected cells
T1 sequence (P46095 whole entry): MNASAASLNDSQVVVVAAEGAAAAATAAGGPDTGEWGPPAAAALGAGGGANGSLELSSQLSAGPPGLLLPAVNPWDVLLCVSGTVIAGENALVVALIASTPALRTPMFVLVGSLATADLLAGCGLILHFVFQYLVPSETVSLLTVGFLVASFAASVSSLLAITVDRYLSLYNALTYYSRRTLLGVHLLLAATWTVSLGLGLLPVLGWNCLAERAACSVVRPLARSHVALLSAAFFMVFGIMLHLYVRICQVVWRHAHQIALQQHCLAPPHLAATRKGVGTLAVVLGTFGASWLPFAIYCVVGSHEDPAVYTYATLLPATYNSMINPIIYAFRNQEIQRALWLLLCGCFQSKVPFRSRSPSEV
Format: cell-based
Procedure, shortened: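 CHO-K1 cells with doxycycline-induced (1 μg/ml, 20 h) GPR6 treated with compounds 45 min at 37 °C in Ringer's buffer (pH 7.4) with 0.5% fatty acid free BSA. Constitutive cAMP measured by Lance HTRF Ultra cAMP; IC50 from four-parameter logistic fit.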
Work on Cc1cccc(CN2CCN(c3nc4ccccc4nc3NC3CC3)CC2)c1 [Cpd 1, N-cyclopropyl-3-(4-(3-methylbenzyl)piperazin-1-yl)quinoxalin-2-amine, 2,2,2-trifluoroacetic acid salt] yielded an IC50 of 17700 nM.
“(3-bromo-4-methylphenyl)(4-(3-(cyclopropylamino)quinoxalin-2-yl)piperazin-1-yl)methanone, 2,2,2-trifluoroacetic acid salt [Cpd 154]” gave an IC50 of 720 nM.
Clc1ccc(Cl)c(CN2CCN(c3nc4ccc(Br)cc4nc3NC3CC3)CC2)c1 [Cpd 45, 7-bromo-N-cyclopropyl-3-(4-(2,5-dichlorobenzyl)piperazin-1-yl)quinoxalin-2-amine, 2,2,2-trifluoroacetic acid salt] gave an IC50 of 2340 nM.
“8-bromo-N-cyclopropyl-3-(4-(2,5-dichlorobenzyl)piperazin-1-yl)quinoxalin-2-amine, 2,2,2-trifluoroacetic acid salt [Cpd 133]” showed an IC50 of 32 nM.
With “(2-fluoro-4-methoxyphenyl)(1-(3-(isopropylamino)pyrazino[2,3-d]pyridazin-2-yl)piperidin-4-yl)methanone, 2,2,2-trifluoroacetic acid salt [Cpd 641]” the IC50 was 14 nM.
With “3-(4-(2,4-difluorobenzyl)piperidin-1-yl)-2-(isopropylamino)quinoxaline-6-carbonitrile [Cpd 461]” the IC50 was 20 nM.
“(R)-7-chloro-N-cyclopropyl-3-(4-((2,4-difluorophenyl)fluoromethyl)piperidin-1-yl)pyrido[3,4-b]pyrazin-2-amine, 2,2,2-trifluoroacetic acid salt [Cpd 523]” showed an IC50 of 340 nM.
Compound “(1-(2-(cyclopropylamino)pyrido[3,4-b]pyrazin-3-yl)piperidin-4-yl)(3-fluorophenyl)methanone, 2,2,2-trifluoroacetic acid salt [Cpd 568]” has an IC50 of 2180 nM.
In the case of “(4-chlorophenyl)(4-(3-(pyridin-3-ylamino)quinoxalin-2-yl)piperazin-1-yl)methanone, 2,2,2-trifluoroacetic acid salt [Cpd 223]”, the IC50 is reported as 5620 nM.
For “2-(cyclopropylamino)-3-(4-(2-fluoro-4-methoxybenzyl)piperazin-1-yl)pyrido[3,4-b]pyrazine-5-carbonitrile, 2,2,2-trifluoroacetic acid salt [Cpd 613]”, the IC50 was 92 nM.
Work on “N-cyclobutyl-2-(4-(2,4-difluorophenoxy)piperidin-1-yl)pyrido[3,4-b]pyrazin-3-amine [Cpd 657]” yielded an IC50 of 8 nM.
“(4-chlorophenyl)(4-(2-(cyclopropylamino)pyrido[3,4-b]pyrazin-3-yl)piperazin-1-yl)methanone [Cpd 263]” was tested, and the IC50 was 120 nM.
“3-(4-(4-chlorobenzyl)piperidin-1-yl)-N-cyclopropylpyrido[3,4-b]pyrazin-2-amine, 2,2,2-trifluoroacetic acid salt [Cpd 424]” was tested, and the IC50 was 310 nM.
For “(6-chloro-2,3-difluorophenyl)(1-(2-(cyclopropylamino)pyrido[3,4-b]pyrazin-3-yl)piperidin-4-yl)methanone, 2,2,2-trifluoroacetic acid salt [Cpd 569]”, the IC50 was 62 nM.
Compound “(2-(cyclopropylamino)-3-(4-(2,4-difluorobenzyl)piperazin-1-yl)pyrido[3,4-b]pyrazin-7-yl)(morpholino)methanone, 2,2,2-trifluoroacetic acid salt [Cpd 611]” has an IC50 of 44 nM.
“3-(4-((4-chlorophenyl)sulfonyl)piperazin-1-yl)-2-(cyclopropylamino)quinoxaline-6-carbonitrile, 2,2,2-trifluoroacetic acid salt [Cpd 227]” was tested, and the IC50 was 3290 nM.
“3-fluoro-4-((1-(3-(isopropylamino)pyrazino[2,3-d]pyridazin-2-yl)piperidin-4-yl)oxy)benzonitrile, 2,2,2-trifluoroacetic acid salt [Cpd 639]” was tested, and the IC50 was 30 nM.
In the case of “3-(4-(2,5-dichlorobenzyl)piperazin-1-yl)-N-(1,2,4-triazin-3-yl)quinoxalin-2-amine, 2,2,2-trifluoroacetic acid salt [Cpd 177]”, the IC50 is reported as 17800 nM.
With “3-(4-((2,4-difluorophenyl)fluoromethyl)piperidin-1-yl)-N-isopropylpyrido[3,4-b]pyrazin-2-amine, 2,2,2-trifluoroacetic acid salt [Cpd 621]” the IC50 was 21 nM.
“(S)—N-(sec-butyl)-3-(4-(2-fluoro-4-methoxyphenoxy)piperidin-1-yl)pyrazino[2,3-d]pyridazin-2-amine, 2,2,2-trifluoroacetic acid salt [Cpd 637]” gave an IC50 of 26 nM.
“(4-chloro-2-fluorophenyl)(1-(2-(cyclopropylamino)pyrido[3,4-b]pyrazin-3-yl)piperidin-4-yl)methanone, 2,2,2-trifluoroacetic acid salt [Cpd 447]” was tested, and the IC50 was 35 nM.
For “(1-(2-(cyclopropylamino)pyrido[3,4-b]pyrazin-3-yl)piperidin-4-yl)(2-fluoro-5-(methylthio)phenyl)methanone, 2,2,2-trifluoroacetic acid salt [Cpd 593]”, the IC50 was 23 nM.
Compound “3-(4-(2,5-dichlorobenzyl)piperazin-1-yl)-2-(isoxazol-3-ylamino)quinoxaline-6-carbonitrile, 2,2,2-trifluoroacetic acid salt [Cpd 340]” has an IC50 of 15400 nM.
“3-(4-((4-chloro-2-oxopyridin-1(2H)-yl)methyl)piperidin-1-yl)-2-(cyclopropylamino)quinoxaline-6-carbonitrile [Cpd 526]” showed an IC50 of 670 nM.
With “(R)-2-(cyclopropylamino)-3-(4-((2,4-difluorophenyl)fluoromethyl)piperidin-1-yl)-N,N-dimethylpyrido[3,4-b]pyrazine-7-carboxamide, 2,2,2-trifluoroacetic acid salt [Cpd 578]” the IC50 was 7210 nM.
Clc1cc(CN2CCN(c3nc4ccccc4nc3NC3CC3)CC2)c(Cl)s1 [Cpd 99, N-cyclopropyl-3-(4-((2,5-dichlorothiophen-3-yl)methyl)piperazin-1-yl)quinoxalin-2-amine, 2,2,2-trifluoroacetic acid salt] was tested, and the IC50 was 6030 nM.
In the case of “2-(cyclopropylamino)-3-(4-((2,4-difluorophenyl)fluoromethyl)piperidin-1-yl)quinoxaline-6-carbonitrile, 2,2,2-trifluoroacetic acid salt [Cpd 480]”, the IC50 is reported as 72 nM.
“2-(cyclopropylamino)-3-(4-(2,5-dichloroisonicotinoyl)piperazin-1-yl)quinoxaline-6-carbonitrile [Cpd 265]” showed an IC50 of 300 nM.
Clc1ccc(Cl)c(CN2CCN(c3nc4ncccc4nc3NC3CC3)CC2)c1 [Cpd 63, N-cyclopropyl-3-(4-(2,5-dichlorobenzyl)piperazin-1-yl)pyrido[2,3-b]pyrazin-2-amine] showed an IC50 of 1130 nM.
Clc1cccc(CN2CCN(c3nc4ccccc4nc3Nc3ncccn3)CC2)c1 [Cpd 126, 3-(4-(3-chlorobenzyl)piperazin-1-yl)-N-(pyrimidin-2-yl)quinoxalin-2-amine, 2,2,2-trifluoroacetic acid salt] was tested, and the IC50 was 47000 nM.
For “6-bromo-N-cyclopropyl-3-(4-(2,4-difluorobenzyl)piperidin-1-yl)quinoxalin-2-amine, 2,2,2-trifluoroacetic acid salt [Cpd 495]”, the IC50 was 18 nM.
With “2-((2,2-difluoroethyl)amino)-3-(4-(2,4-difluorophenoxy)piperidin-1-yl)quinoxaline-6-carbonitrile [Cpd 513]” the IC50 was 71 nM.
With “(2-chloro-5-fluorophenyl)(1-(2-(cyclopropylamino)pyrido[3,4-b]pyrazin-3-yl)piperidin-4-yl)methanone, 2,2,2-trifluoroacetic acid salt [Cpd 567]” the IC50 was 5780 nM.
With Cc1cccc(CN2CCN(c3nc4ncccc4nc3NC3CC3)CC2)c1 [Cpd 3, N-cyclopropyl-3-(4-(3-methylbenzyl)piperazin-1-yl)pyrido[2,3-b]pyrazin-2-amine] the IC50 was 24600 nM.
“N-cyclopropyl-2-(4-(2,5-difluorobenzyl)piperazin-1-yl)pyrido[3,4-b]pyrazin-3-amine, 2,2,2-trifluoroacetic acid salt [Cpd 292]” showed an IC50 of 56 nM.
“3-fluoro-4-((1-(3-(isopropylamino)pyrazino[2,3-d]pyridazin-2-yl)piperidin-4-yl)oxy)phenol, 2,2,2-trifluoroacetic acid salt [Cpd 648]” gave an IC50 of 65 nM.
“N-cyclopropyl-3-(4-(2,5-difluorophenoxy)piperidin-1-yl)pyrido[3,4-b]pyrazin-2-amine, 2,2,2-trifluoroacetic acid salt [Cpd 431]” showed an IC50 of 170 nM.
For “7-chloro-N-cyclopropyl-3-(4-(2,4-difluorophenoxy)piperidin-1-yl)pyrido[3,4-b]pyrazin-2-amine, 2,2,2-trifluoroacetic acid salt [Cpd 476]”, the IC50 was 15 nM.
Work on “3-(4-(2,4-difluorophenoxy)piperidin-1-yl)-N-isopropylpyrido[3,4-b]pyrazin-2-amine, 2,2,2-trifluoroacetic acid salt [Cpd 620]” yielded an IC50 of 18 nM.
Clc1ccc(NC2CCN(c3nc4ccccc4nc3NC3CC3)CC2)cc1 [Cpd 413, 3-(4-((4-chlorophenyl)amino)piperidin-1-yl)-N-cyclopropylquinoxalin-2-amine, 22,2,2-trifluoroacetic acid salt] was tested, and the IC50 was 19 nM.

Same assay, conditions: compounds of Compound Table 2; inhibition of constitutive cAMP activity of GPR6 expressed in CHO-K1 cells; approximate IC50; read-out: IC50
In the case of CC1CN(C(=O)c2cc(Cl)ccc2Cl)CCN1c1nc2ccccc2nc1NC1CC1 (stereo not drawn) [Compound Table 2: Cpd 8, (4-(3-(cyclopropylamino)quinoxalin-2-yl)-3-methylpiperazin-1-yl)(2,5-dichlorophenyl)methanone, 2,2,2-trifluoroacetic acid salt], the IC50 is reported as 79600 nM.
For CC(C)C1CN(c2nc3ccccc3nc2NC2CC2)CCN1Cc1cc(Cl)ccc1Cl (stereo not drawn) [Compound Table 2: Cpd 9, N-cyclopropyl-3-(4-(2,5-dichlorobenzyl)-3-isopropylpiperazin-1-yl)quinoxalin-2-amine], the IC50 was 17700 nM.
